From US7739055B2, “Methods and systems for generating and evaluating peptides” (priority 2005, dated 2010)
Values after ≈ are worked out from the molar mass of the structure shown. Read-outs that look alike come from different tables or passages of the source. Where a SMILES comes first, the peptide text is derived from it.

Key:
[1] = tested on: Smith Diffuse strain of Staphylococcus aureus
[2] = tested on: Sterne strain of Bacillus anthracis

Compound | MIC S. aureus ([1]; Smith Diffuse strain of) | MIC B. cereus (B. cereus; 24 h) | MIC B. anthracis [2] | HC50, hemolytic concentration at which the peptides lyse 50% of human red blood cells (human red blood cells) | MIC E. coli (Escherichia coli; 24 h) | MIC S. aureus [1] | MIC B. cereus (B. cereus) | MIC E. coli (Escherichia coli; first concentration that prohibits growth by OD at 24 hours, Table 1)
CC(C)C[C@H](NC(=O)[C@H](CCCCN)NC(=O)[C@H](Cc1ccccc1)NC(=O)[C@@H](NC(=O)[C@@H](NC(=O)CNC(=O)[C@H](CC(C)C)NC(=O)[C@@H](N)Cc1ccccc1)C(C)C)C(C)C)C(=O)N[C@@H](C)C(=O)N[C@@H](CO)C(=O)N[C@@H](CCCCN)C(=O)N[C@H](C(=O)N[C@@H](Cc1ccccc1)C(=O)N1CCC[C@H]1C(=O)N[C@@H](C)C(=O)N[C@H](C(=O)N[C@@H](Cc1ccccc1)C(=O)NCC(=O)N[C@@H](CCCCN)C(=O)N[C@H](C(=O)O)C(C)C)C(C)C)C(C)C [Peptide 28] (H-FLGVVFKLASKVFPAVFGKV-OH; N-terminus and C-terminus assumed) | 8 µg/mL (≈ 3.71 µM) | 16 µg/mL (≈ 7.43 µM) | 16 µg/mL (≈ 7.43 µM) | 42 µg/mL | 64 µg/mL (≈ 29.7 µM) |  |  | 
CC[C@H](C)[C@H](NC(=O)[C@H](CC(C)C)NC(=O)[C@H](C)NC(=O)[C@@H]1CCCN1C(=O)[C@H](Cc1ccccc1)NC(=O)[C@@H](NC(=O)[C@H](CCCCN)NC(=O)[C@H](CO)NC(=O)[C@H](C)NC(=O)[C@@H](NC(=O)[C@H](CCCNC(=N)N)NC(=O)[C@H](Cc1ccccc1)NC(=O)[C@H](CC(C)C)NC(=O)[C@@H](N)Cc1ccccc1)C(C)C)C(C)C)C(=O)NCC(=O)N[C@@H](CCCCN)C(=O)N[C@@H](Cc1ccccc1)C(=O)N[C@@H](CCCCN)C(=O)N[C@@H](CCCCN)C(=O)N[C@@H](CCCCN)C(=O)O [Peptide 51] (H-FLFRVASKVFPALIGKFKKK-OH; N-terminus and C-terminus assumed) | 16 µg/mL (≈ 6.88 µM) | 16 µg/mL (≈ 6.88 µM) | 16 µg/mL (≈ 6.88 µM) | greater than 512 μg/ml | 64 µg/mL (≈ 27.5 µM) |  |  | 
THIHMNARLLIRSPFTDPQL [Peptide 10] |  |  | + (key: +: MIC greater than 256 ug/mL; ++: MIC greater than 128 ug/mL, not sufficiently soluble to test as 256 ug/mL) |  |  | + (key: +: MIC greater than 256 ug/mL; ++: MIC greater than 128 ug/mL, not sufficiently soluble to test as 256 ug/mL) | + (key: +: MIC greater than 256 ug/mL; ++: MIC greater than 128 ug/mL, not sufficiently soluble to test as 256 ug/mL) | + (MIC greater than 256 ug/mL)
